Assay results: US20260182611A1, “SWEETENER COMPOSITION AND TASTE-IMPROVING AGENT” (AJINOMOTO CO., INC., priority 2023, published 2026)

Experiment: Sensory evaluation of taste quality (sweetness intensity, bitter taste, lingering sweetness) of sweet solutions by trained panel
Parameters: species or system human
Conditions: closer to PC sucrose
Method: Rebaudioside A (MORITA KAGAKU KOGYO CO., LTD.) was dissolved in filtered water (ion exchange water) to prepare a 720 ppm aqueous solution of rebaudioside A, which was used as the negative control (NC) solution.
Sucrose (Mitsui DM Sugar Co., Ltd.) was dissolved in filtered water to prepare a 7.5% aqueous solution of sucrose, which was used as the positive control (PC) solution.
Sweet solutions prepared by adding each compound (naringenin (Penta Manufacturing Company), hesperetin (Xi'an International Healthcare Factory Co., Ltd.), pinocembrin (Shaanxi Ebony Biotech Co., Ltd.), γ-Glu-Val-Gly (AJINOMOTO CO., INC.), γ-Glu-Abu (AJINOMOTO CO., INC.), yeast extract containing γ-Glu-Abu, γ-nonalactone (Sigma-Aldrich Co. LLC.)) to NC solution at the concentrations indicated in Tables 1 to 5 were evaluated by sensory evaluation.
The yeast extract containing γ-Glu-Abu used in this example was a powdered yeast extract containing 7 to 13% (w/w) γ-Glu-Abu based on dry weight, which was produced in accordance with the method described in WO 2012/046731 or “Savorboost (product name) yeast extract containing γ-Glu-Abu (Asahi Group Foods, Ltd.)”. In Tables 1-4, the concentration of the yeast extract containing γ-Glu-Abu added is shown as a value converted to the amount of γ-Glu-Abu in the yeast extract.
The taste quality of the PC solution (7.5% sucrose) was scored as 10.0 points, the taste quality of the NC solution (720 ppm rebaudioside A) was scored as 1.0 points, and the sensory evaluation score for each sample was evaluated in 0.1 point increments. The taste quality was evaluated including sweetness intensity, intensity of bitter taste, and intensity of lingering sweetness. Samples with an evaluation score of 3 or higher were deemed to have a taste quality-improving effect. The evaluation was performed by a panel of four people who had received sensory evaluation training, and was conducted by blind evaluation. The average evaluation score of all panel members was calculated and addition effect was examined.
In addition, to compare with the addition effect of a single component, a theoretical additive point was calculated and compared with the evaluation score when the components were added in combination to examine the presence or absence of a synergistic effect.

[1] = 5 ppm of the flavonoid in combination with 0.3 ppm γ-Glu-Val-Gly
[2] = flavonoid in combination with γ-Glu-Abu or a yeast extract containing γ-Glu-Abu

For `O=C1C[C@@H](c2ccc(O)cc2)Oc2cc(O)cc(O)c21` [naringenin], which “taste quality of rebaudioside A” value [1] is on record?
Its value is “synergistically improved the taste quality of rebaudioside A”.

And the “taste quality of rebaudioside A” value [2]?
Its value is “synergistically improved the taste quality of rebaudioside A”.

With `COc1ccc(C2CC(=O)c3c(O)cc(O)cc3O2)cc1O` (stereo not shown) [hesperetin] as the compound, how does the “taste quality of rebaudioside A” value [1] read?
The value was “synergistically improved the taste quality of rebaudioside A”.

And the “taste quality of rebaudioside A” value [2]?
The value was “synergistically improved the taste quality of rebaudioside A”.

What does the source list for `O=C1CC(c2ccccc2)Oc2cc(O)cc(O)c21` (stereo not shown) [pinocembrin]?
taste quality of rebaudioside A [1]: synergistically improved the taste quality of rebaudioside A; taste quality of rebaudioside A (combination of pinocembrin and rebaudioside A alone): improved the taste quality of rebaudioside A; taste quality of rebaudioside A [2]: synergistically improved the taste quality of rebaudioside A
